For test [1], the target named is T1, SFRP-1 (Homo sapiens, UniProt Q8N474).
T1 sequence (Q8N474 32-314): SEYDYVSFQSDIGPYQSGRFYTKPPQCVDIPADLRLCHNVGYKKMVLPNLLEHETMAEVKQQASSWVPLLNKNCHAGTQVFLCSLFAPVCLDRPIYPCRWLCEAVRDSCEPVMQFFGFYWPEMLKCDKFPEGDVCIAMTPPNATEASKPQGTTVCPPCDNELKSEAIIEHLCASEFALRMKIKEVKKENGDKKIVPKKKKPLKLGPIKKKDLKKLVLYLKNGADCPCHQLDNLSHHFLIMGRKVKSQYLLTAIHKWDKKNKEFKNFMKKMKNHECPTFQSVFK
Put plainly: Fluorescence polarization binding assay (competitive displacement of a probe compound from SFRP-1).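 Also: test compound competes with a fluorescent probe held by SFRP-1, seen as a drop in probe anisotropy after incubation in darkness, with anisotropy as function of rising compound dose.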 The note with it: fluorescence anisotropy, 45 nM SFRP-1, 20 nM probe. For orientation: In fluorescence polarisation assays a small probe gives low polarisation when free and higher when bound to something large.

Test [2] deals with T1, SFRP-1. Put plainly: Cell-based assay for in vitro measurement of SFRP-1/SARP2 antagonist activity (U2OS cells co-transfected with 16x TCF-tk-Luciferase reporter, Wnt and hSFRP-1). (In general: Reporter assays use an easily measured gene product as a stand-in for the process of interest.)
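For EC50 in this document: U2OS cells co-transfected with a TCF-tk luciferase reporter, a Wnt vector, hSFRP-1 or empty vector and CMV-βgal, luciferase luminescence read in cell lysates alongside βgal activity.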

As for `O=C(c1ccnc(Cl)c1)N1CCC(NS(=O)(=O)c2cc(S(=O)(=O)c3ccccc3)ccc2C(F)(F)F)CC1` [Example 978, N-[1-(2-chloroisonicotinoyl)piperidin-4-yl]-5-(phenylsulfonyl)-2-(trifluoromethyl)benzenesulfonamide], the IC50 (as a rule, the midpoint of a concentration-inhibition curve) in test [1] turned out to be 0.25 µM. In test [2], the response was half-maximal at 0.392 µM (EC50).

As to `O=C(O)c1ccc(-c2ccc(CNS(=O)(=O)c3cc(S(=O)(=O)c4ccccc4)ccc3C(F)(F)F)cc2)cc1` [Example 979, 4′-[({[5-(phenylsulfonyl)-2-(trifluoromethyl)phenyl]sulfonyl}amino)methyl]biphenyl-4-carboxylic acid], in test [1], the IC50 came out at 2.2 µM. Also, the response in test [2] was half-maximal at 2.94 µM (EC50).

In turn, `CN(CCNS(=O)(=O)c1cc(S(=O)(=O)c2ccccc2)ccc1C(F)(F)F)C(=O)NC1CCN(C(=O)CCC(=O)O)CC1` [Example 980, 4-{4-[({methyl[2-({[5-(phenylsulfonyl)-2-(trifluoromethyl)phenyl]sulfonyl}amino)ethyl]amino}carbonyl)amino]piperidin-1-yl}-4-oxobutanoic acid] gave an IC50 in test [1] of 0.4 µM. It took 0.853 µM to reach a half-maximal effect in test [2] (EC50).

Regarding `CN(CCNS(=O)(=O)c1cc(S(=O)(=O)c2ccccc2)ccc1C(F)(F)F)C(=O)c1ccc(CBr)cc1` [Example 983, 4-(bromomethyl)-N-methyl-N-[2-({[5-(phenylsulfonyl)-2-(trifluoromethyl)phenyl]sulfonyl}amino)ethyl]benzamide], the IC50 in test [1] was 0.8 µM. In addition, the response in test [2] was half-maximal at 1.14 µM (EC50).

On to `O=S(=O)(NCCc1ccc(-c2nn[nH]n2)cc1)c1cc(S(=O)(=O)c2ccccc2)ccc1C(F)(F)F` [Example 984, 5-(phenylsulfonyl)-N-{2-[4-(2H-tetrazol-5-yl)phenyl]ethyl}-2-(trifluoromethyl)benzenesulfonamide], for which the IC50 in test [1] is 0.2 µM. The EC50 (in general, the concentration needed to bring the measured effect to its halfway point) in test [2] turned out to be 0.657 µM.

In the case of `CS(=O)(=O)Nc1ccc(CCNS(=O)(=O)c2cc(S(=O)(=O)c3ccccc3)ccc2C(F)(F)F)cc1` [Example 987, N-(2-{4-[(methylsulfonyl)amino]phenyl}ethyl)-5-(phenylsulfonyl)-2-(trifluoromethyl)benzenesulfonamide], the IC50 in test [1] stood at 0.14 µM. Moreover, the midpoint of the response in test [2], the EC50, lay at 0.231 µM.

Regarding `CC(C)(C)OC(=O)NCCCNS(=O)(=O)c1cc(S(=O)(=O)c2ccccc2)ccc1C(F)(F)F` [Example 988, tert-butyl [3-({[5-(phenylsulfonyl)-2-(trifluoromethyl)phenyl]sulfonyl}amino)propyl]carbamate], the IC50 in test [1] turned out to be 1.1 µM. The compound further came in with a half-maximal effective concentration (EC50) in test [2] of 1.89 µM.

`CN(CCNS(=O)(=O)c1cc(S(=O)(=O)c2ccccc2)ccc1C(F)(F)F)C(=O)N[C@@H]1CCN(C(=O)OC(C)(C)C)C1` [Example 990, tert-butyl (3R)-3-[({methyl[2-({[5-(phenylsulfonyl)-2-(trifluoromethyl)phenyl]sulfonyl}amino)ethyl]amino}carbonyl)amino]pyrrolidine-1-carboxylate] registered a half-inhibitory concentration (IC50) in test [1] of 0.13 µM. Moreover, in test [2], it took 0.577 µM to reach a half-maximal effect (EC50).

On to `COc1ccc2c(c1)CC(NS(=O)(=O)c1cc(S(=O)(=O)c3ccccc3)ccc1C(F)(F)F)C2` (centres unmarked) [Example 991, N-(5-methoxy-2,3-dihydro-1H-inden-2-yl)-5-(phenylsulfonyl)-2-(trifluoromethyl)benzenesulfonamide], for which the IC50 in test [1] worked out at 0.08 µM. Further, in test [2], the 50% effective concentration (EC50) was 2.64 µM.

The compound `CN(CCCNS(=O)(=O)c1cc(S(=O)(=O)c2ccccc2)ccc1C(F)(F)F)C(=O)CCC(=O)O` [Example 992, 4-{methyl[3-({(5-(phenylsulfonyl)-2-(trifluoromethyl)phenyl]sulfonyl}amino)propyl]amino}-4-oxobutanoic acid] returned an IC50 in test [1] of 0.7 µM. The compound also returned an EC50 in test [2] of 3.16 µM.

The compound `NCCCNS(=O)(=O)c1cc(S(=O)(=O)c2ccccc2)ccc1C(F)(F)F` [Example 993, N-(3-aminopropyl)-5-(phenylsulfonyl)-2-(trifluoromethyl)benzenesulfonamide] gave an IC50 in test [1] of 1.5 µM. Further, it took 2.29 µM to reach a half-maximal effect in test [2] (EC50).

In test [1], `O=C(O)c1cccc(-c2cccc(CNS(=O)(=O)c3cc(S(=O)(=O)c4ccccc4)ccc3C(F)(F)F)c2)c1` [Example 996, 3′-[({[5-(phenylsulfonyl)-2-(trifluoromethyl)phenyl]sulfonyl}amino)methyl]biphenyl-3-carboxylic acid] registered an IC50 of 0.3 µM. In test [2], this compound displayed an EC50 of 3.01 µM.

Compound `O=C(O)c1ccc(-c2cccc(CNS(=O)(=O)c3cc(S(=O)(=O)c4ccccc4)ccc3C(F)(F)F)c2)cc1` [Example 997, 3′-[({[5-(phenylsulfonyl)-2-(trifluoromethyl)phenyl]sulfonyl}amino)methyl]biphenyl-4-carboxylic acid] showed an IC50 in test [1] of 0.9 µM. Moreover, it took 3.08 µM to reach a half-maximal effect in test [2] (EC50).

As to `N=C(N)Nc1ccc(CCNS(=O)(=O)c2cc(S(=O)(=O)c3ccccc3)ccc2C(F)(F)F)cc1` [Example 998, N-[2-(4-{[amino(imino)methyl]amino}phenyl)ethyl]-5-(phenylsulfonyl)-2-(trifluoromethyl)benzenesulfonamide], the IC50 in test [1] was determined as 0.3 µM. For the same compound, a half-maximal response in test [2] (EC50) required 2.2 µM.

`COc1ccc(S(=O)(=O)c2ccc(C(F)(F)F)c(S(=O)(=O)NC3CCNCC3)c2)cc1` [Example 999, 5-[(4-methoxyphenyl)sulfonyl]-N-piperidin-4-yl-2-(trifluoromethyl)benzenesulfonamide] showed an IC50 in test [1] of 0.8 µM. The compound further showed an EC50 in test [2] of 0.789 µM.

As for `CC(C(N)=O)N1CCC(NS(=O)(=O)c2cc(S(=O)(=O)c3ccccc3)ccc2C(F)(F)F)CC1` (centres unmarked) [Example 1003, 2-[4-({[5-(phenylsulfonyl)-2-(trifluoromethyl)phenyl]sulfonyl}amino)piperidin-1-yl]propanamide], the half-maximal inhibitory concentration (IC50) in test [1] was 0.14 µM. Also, the concentration giving a half-maximal response (EC50) in test [2] came out at 0.399 µM.

In the case of `O=S(=O)(NC1Cc2ccc(O)cc2C1)c1cc(S(=O)(=O)c2ccccc2)ccc1C(F)(F)F` (centres unmarked) [Example 1004, N-(5-hydroxy-2,3-dihydro-1H-inden-2-yl)-5-(phenylsulfonyl)-2-(trifluoromethyl)benzenesulfonamide], in test [1], the IC50 came to 0.06 µM. In test [2], this compound returned an EC50 of 0.473 µM.

In test [1], `COP(=O)(Cc1ccc(C(=O)N(C)CCNS(=O)(=O)c2cc(S(=O)(=O)c3ccccc3)ccc2C(F)(F)F)cc1)OC` [Example 1006, dimethyl [4-({methyl[2-({[5-(phenylsulfonyl)-2-(trifluoromethyl)phenyl]sulfonyl}amino)ethyl]amino}carbonyl)benzyl]phosphonate] came in with an IC50 of 0.18 µM. Also, a half-maximal effect in test [2] (EC50) was put at 8.16 µM.

In test [1], `CN(CCNS(=O)(=O)c1cc(S(=O)(=O)c2ccccc2)ccc1C(F)(F)F)C(=O)N(C)C1CCNCC1` [Example 1007, N-[2-(methyl{[methyl(piperidin-4-yl)amino]carbonyl}amino)ethyl]-5-(phenylsulfonyl)-2-(trifluoromethyl)benzenesulfonamide] returned an IC50 of 0.9 µM. It took 1.52 µM to reach a half-maximal effect in test [2] (EC50).

As for `CN(CCNS(=O)(=O)c1cc(S(=O)(=O)c2ccccc2)ccc1C(F)(F)F)C(=O)N[C@@H]1CCNC1` [Example 1008, N-[2-(methyl{[(3R)-pyrrolidin-3-ylamino]carbonyl}amino)ethyl]-5-(phenylsulfonyl)-2-(trifluoromethyl)benzenesulfonamide], the IC50 in test [1] worked out at 3 µM. The compound further had a concentration giving a half-maximal response (EC50) in test [2] of 0.936 µM.

`CN(CCNS(=O)(=O)c1cc(S(=O)(=O)c2ccccc2)ccc1C(F)(F)F)C(=O)N[C@@H]1CCCN(C(=O)OC(C)(C)C)C1` [Example 1009, tert-butyl (3R)-3-[({methyl[2-({[5-(phenylsulfonyl)-2-(trifluoromethyl)phenyl]sulfonyl}amino)ethyl]amino}carbonyl)amino]piperidine-1-carboxylate]: the half-inhibitory concentration (IC50) in test [1] was found to be 0.21 µM. For the same compound, it took 0.945 µM to reach a half-maximal effect in test [2] (EC50).

`CN(CCNS(=O)(=O)c1cc(S(=O)(=O)c2ccccc2)ccc1C(F)(F)F)C(=O)N[C@H]1CCCN(C(=O)OC(C)(C)C)C1` [Example 1010, tert-butyl (3S)-3-[({methyl[2-({[5-(phenylsulfonyl)-2-(trifluoromethyl)phenyl]sulfonyl}amino)ethyl]amino}carbonyl)amino]piperidine-1-carboxylate] registered an IC50 in test [1] of 0.6 µM. In test [2], this compound showed an EC50 of 2 µM.

On to `O=S(=O)(N[C@H]1CC[C@H](O)CC1)c1cc(S(=O)(=O)c2ccccc2)ccc1C(F)(F)F` [Example 1013, N-(trans-4-hydroxycyclohexyl)-5-(phenylsulfonyl)-2-(trifluoromethyl)benzenesulfonamide], for which the half-maximal inhibitory concentration (IC50) in test [1] was 0.158 µM. For the same compound, in test [2], the EC50 came out at 0.277 µM.

For the compound `O=S(=O)(NC1CCN(CCN2CCOCC2)CC1)c1cc(S(=O)(=O)c2ccccc2)ccc1C(F)(F)F` [Example 1019, N-[1-(2-morpholin-4-ylethyl)piperidin-4-yl]-5-(phenylsulfonyl)-2-(trifluoromethyl)benzenesulfonamide], the IC50 in test [1] amounted to 0.29 µM. For the same compound, the response in test [2] was half-maximal at 0.898 µM (EC50).

In test [1], `O=C(c1ccc(=O)n(S(=O)(=O)c2cc(S(=O)(=O)c3ccccc3)ccc2C(F)(F)F)c1)N1CCC(NS(=O)(=O)c2cc(S(=O)(=O)c3ccccc3)ccc2C(F)(F)F)CC1` [Example 1020, N-{1-[(6-oxo-1-{[5-(phenylsulfonyl)-2-(trifluoromethyl)phenyl]sulfonyl}-1,6-dihydropyridin-3-yl)carbonyl]piperidin-4-yl}-5-(phenylsulfonyl)-2-(trifluoromethyl)benzenesulfonamide] registered an IC50 of 0.6 µM. Also, it took 0.264 µM to reach a half-maximal effect in test [2] (EC50).

(Values after patent US20060276464A1, “Diarylsulfone sulfonamides and use thereof” (Wyeth, priority 2005, published 2006).)
